Results as given in patent US5712253A, “Macrocyclic 13-membered ring derivatives of erythromycins A and B” (Abbott Laboratories, priority 1996, dated 1998).
In brackets after ≈: the same amount, converted by molar mass. Read-outs that look alike come from different tables or passages of the source.

How the values were obtained:
[1] = tested on: Pseudomonas eruginosa K799/WT; test: Antibacterial activity (agar dilution method), MIC; type: cell-based; conditions: unit assumed
Protocol: (§1) Compounds of the invention were next tested for antibacterial potency, such activity being regarded as an undesirable side effect of motilin […] therapy. Assays were conducted using methodology well-known in the art (the agar dilution method).

[2] = tested on: Streptococcus aureus A5177; test: Antibacterial activity (agar dilution method), MIC; type: cell-based; conditions: unit assumed
Protocol: as §1

Escherichia coli SS = test: Antibacterial activity (agar dilution method), MIC; type: cell-based; conditions: unit assumed
Protocol: as §1

[3] = tested on: Streptococcus bovis ATCC 8043; test: Antibacterial activity (agar dilution method), MIC; type: cell-based; conditions: unit assumed
Protocol: as §1

[4] = tested on: Streptococcus pyogenes EES61; test: Antibacterial activity (agar dilution method), MIC; type: cell-based; conditions: unit assumed
Protocol: as §1

[5] = tested on: Streptococcus aureus ATCC 7538P; test: Antibacterial activity (agar dilution method), MIC; type: cell-based; conditions: unit assumed
Protocol: as §1

[6] = tested on: rabbit duodenal smooth muscle; test: In vitro prokinetic activity: contraction of smooth muscle strips isolated from rabbit small intestine (duodenum); type: cell-based
Protocol: The compounds of the present invention were tested in vitro for their ability to induce contraction of smooth muscle strips isolated from rabbit small intestine using the following procedure:
Rabbits were sacrificed and 15 cm of duodenum was rapidly removed and placed in ice-cold modified Ringers solution (120 mM sodium chloride, 25 mM sodium bicarbonate, 4.7 mM potassium chloride, 1.25 mM calcium chloride, 1.20 mM magnesium sulfate and 5.6 mM glucose). The longitudinal muscle layer was separated from the circular muscle by blunt dissection and cut into strips of 10×20 mm. Double-folded strips were vertically suspended between two hooks in 10 mL tissue baths with a mechanical preload of 1 g. The upper hook was connected to an […] force transducer, and its displacement was recorded on a Grass polygraph. The tissue baths contained modified Ringers solution at 37° C. and were continuously gassed with 95% oxygen/5% carbon dioxide in order to maintain the pH at 7.5.
After a stabilization period of at least 60 minutes, a contractility dose-response series was performed by adding increasing final concentrations of methacholine (10^-7 M, 10^-6 M and 10^-5 M) in volumes of 100 μL. The bath solutions were replaced at least three times between doses.
After the methacholine dose-response series was completed, a test compound dose response curve was initiated by the same procedure used for the methacholine dose-response series, with at least five concentrations of test compound within the range of 10^-10 M to 10^-4 M. The tissues were washed repeatedly between doses, and the studies were completed by recording the contractile response to 10^-5 M methacholine to ascertain integrity of the muscle preparation. Contractile responses were expressed as percent of maximal methacholine induced contraction. The concentration of test compound which produces half of the maximal contraction (ED50 value) and the negative logarithm of the ED50 value (pED50) were estimated from the dose-response curves. The pED50 values were compared to motilin, (pED50 : 8.10) a known gastrointestinal prokinetic agent.

motilin receptors = target: T1, motilin receptors (Oryctolagus cuniculus, UniProt G1T803); test: Motilin receptor binding activity ([^125 I]-motilin displacement, rabbit antral smooth muscle)
T1 construct: Motilin receptors were isolated from rabbit antral smooth muscle tissue; from tissue; host or cells: rabbit antral smooth muscle tissue
Description: This ability of the compounds to bind strongly to motilin receptors and the effective absence of elicitation of contractile activity by estimated therapeutic concentration of these compounds in rabbit duodenal smooth muscle together constitute motilin antagonist activity of the compounds.

T1 sequence (G1T803 1-400): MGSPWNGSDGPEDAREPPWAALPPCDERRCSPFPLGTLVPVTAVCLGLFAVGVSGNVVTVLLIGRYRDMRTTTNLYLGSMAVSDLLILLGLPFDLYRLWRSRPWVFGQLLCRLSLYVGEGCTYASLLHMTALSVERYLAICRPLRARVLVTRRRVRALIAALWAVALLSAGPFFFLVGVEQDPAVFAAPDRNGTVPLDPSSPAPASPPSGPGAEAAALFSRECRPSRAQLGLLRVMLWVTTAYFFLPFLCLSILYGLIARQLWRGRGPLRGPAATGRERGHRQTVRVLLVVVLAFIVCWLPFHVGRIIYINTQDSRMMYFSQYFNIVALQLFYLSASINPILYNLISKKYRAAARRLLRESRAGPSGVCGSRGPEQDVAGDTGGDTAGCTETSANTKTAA

Work on `CC[C@H]1OC(=O)[C@H](C)[C@@H](O[C@H]2C[C@@](C)(OC)[C@@H](O)[C@H](C)O2)[C@H](C)[C@@H](O[C@@H]2O[C@H](C)C[C@H](N(C)C)[C@H]2O)[C@](C)(O)C[C@@H](C)C(=O)[C@H](C)[C@@H](O)[C@]1(C)O` [Erythromycin] yielded an MIC [1] of 0.78 µg/mL (≈ 1.06 µM), an MIC [2] of 6.2 µg/mL (≈ 8.45 µM) and an MIC (Escherichia coli SS) of 0.39 µg/mL (≈ 0.531 µM). For the same compound, the MIC [3] was 0.05 µg/mL (≈ 0.0681 µM), the MIC [4] was 0.05 µg/mL (≈ 0.0681 µM) and the MIC [5] was 0.2 µg/mL (≈ 0.273 µM).

With `CC[C@H]1OC(=O)[C@H](C)[C@@H](O[C@H]2C[C@@](C)(OC)C[C@H](C)O2)[C@H](C)[C@@H](O[C@@H]2O[C@H](C)C[C@H](N(C)CC)[C@H]2O)[C@@]2(C)CC(C)=C(O2)C(C(C)F)[C@H]1C` (stereo partly shown) [Example 1, Compound of Formula (I); R=H; R^1 =methyl; R^2 =ethyl; R^3 =H; X=F] the EC50 ([6]; Oryctolagus cuniculus, rabbit duodenum strips, 37° C., percent of maximal methacholine induced contraction, read-out: pED50 (negative logarithm of the concentration producing half of the maximal contraction) (converted)) was greater than 100000 nM, the “agonism for induction of contractile activity (in words)” value ([6]; rabbit duodenal smooth muscle) was “very weak agonist” and the “potency relative to motilin, induction of contractile activity” value ([6]; rabbit duodenal smooth muscle, pED50 compared to motilin) was “more than four orders of magnitude less potent than motilin”. For the same compound, the MIC [1] was greater than 100 µg/mL, the MIC [2] was 50 µg/mL and the MIC (Escherichia coli SS) was greater than 100 µg/mL. The MIC [3] was 25 µg/mL, the MIC [4] was 25 µg/mL and the MIC [5] was 50 µg/mL. The “motilin receptor binding (in words)” value (motilin receptors; rabbit antral smooth muscle, [^125 I]-motilin) was “binds strongly to motilin receptors” and the Kd (motilin receptors; rabbit antral smooth muscle, [^125 I]-motilin, read-out: pKd, motilin binding (negative logarithm of the concentration displacing 50% of bound [^125 I]-motilin) (converted)) was 11.5 nM.

With `CC[C@H](C)[C@H](NC(=O)[C@@H]1CCCN1C(=O)[C@@H](NC(=O)[C@@H](N)Cc1ccccc1)C(C)C)C(=O)N[C@@H](Cc1ccccc1)C(=O)N[C@H](C(=O)N[C@@H](Cc1ccc(O)cc1)C(=O)NCC(=O)N[C@@H](CCC(=O)O)C(=O)N[C@@H](CC(C)C)C(=O)N[C@@H](CCC(N)=O)C(=O)N[C@@H](CCCNC(=N)N)C(=O)N[C@@H](CCSC)C(=O)N[C@@H](CCC(N)=O)C(=O)N[C@@H](CCC(=O)O)C(=O)N[C@@H](CCCCN)C(=O)N[C@@H](CCC(=O)O)C(=O)N[C@@H](CCCNC(=N)N)C(=O)N[C@@H](CC(N)=O)C(=O)N[C@@H](CCCCN)C(=O)NCC(=O)N[C@@H](CCC(N)=O)C(=O)O)[C@@H](C)O` [motilin, reference compound] the “pED50 (negative logarithm of the concentration producing half of the maximal contraction)” value ([6]; rabbit duodenum strips, 37° C., percent of maximal methacholine induced contraction) was 8.10 and the Kd (motilin receptors) was 0.794 nM.
